Reference: ChEMBL document CHEMBL5214931, “Recent advances in combretastatin A-4 codrugs for cancer therapy” (Eur J Med Chem, 2022)

Legend:
HepG2 [1] = assay: Cytotoxicity against human HepG2 cells assessed as cell growth inhibition measured after 48 hrs by MTT assay; format: functional, cell-based; conditions: HepG2, 48 h
A549 [2] = assay: Cytotoxicity against human A549 cells assessed as cell growth inhibition measured after 48 hrs by MTT assay; format: functional, cell-based; conditions: A549, 48 h
HepG2 [3] = assay: Cytotoxicity against human HepG2 cells assessed as cell growth inhibition; format: functional, cell-based
HeLa = assay: Cytotoxicity against human HeLa cells assessed as cell growth inhibition; format: functional, cell-based
MGC-803 [4] = assay: Cytotoxicity against human MGC-803 cells assessed as cell growth inhibition; format: functional, cell-based
A549 [5] = assay: Cytotoxicity against human A549 cells assessed as cell growth inhibition; format: functional, cell-based
MDA-MB-231 = assay: Cytotoxicity against human MDA-MB-231 cells assessed as cell growth inhibition; format: functional, cell-based
PANC-1 = assay: Cytotoxicity against human PANC-1 cells assessed as cell growth inhibition measured after 72 hrs XTT assay; format: functional, cell-based; conditions: PANC-1, 72 h
PC-3 = assay: Cytotoxicity against human PC-3 cells assessed as cell growth inhibition measured after 72 hrs XTT assay; format: functional, cell-based; conditions: PC-3, 72 h
MGC-803 [6] = assay: Antitumor activity against human MGC-803 cells xenografted in mouse assessed as inhibition of tumor growth at 50 mg/kg, po administered relative to control; format: functional; conditions: read-out: TGI
MDA-MB-468 = assay: Phototoxicity against human MDA-MB-468 cells assessed as cell growth inhibition incubated for 24 hrs followed by LED illumination by MTT assay; format: functional, cell-based; conditions: MDA-MB-468, light or radiation study
Estrogen receptor beta = Estrogen receptor beta (Homo sapiens, UniProt Q92731); assay: Inhibition of human recombinant ERbeta expressed in baculovirus expression system measured after 20 mins by fluorescent polarisation Assay
Sequence of Estrogen receptor beta (Q92731 whole entry): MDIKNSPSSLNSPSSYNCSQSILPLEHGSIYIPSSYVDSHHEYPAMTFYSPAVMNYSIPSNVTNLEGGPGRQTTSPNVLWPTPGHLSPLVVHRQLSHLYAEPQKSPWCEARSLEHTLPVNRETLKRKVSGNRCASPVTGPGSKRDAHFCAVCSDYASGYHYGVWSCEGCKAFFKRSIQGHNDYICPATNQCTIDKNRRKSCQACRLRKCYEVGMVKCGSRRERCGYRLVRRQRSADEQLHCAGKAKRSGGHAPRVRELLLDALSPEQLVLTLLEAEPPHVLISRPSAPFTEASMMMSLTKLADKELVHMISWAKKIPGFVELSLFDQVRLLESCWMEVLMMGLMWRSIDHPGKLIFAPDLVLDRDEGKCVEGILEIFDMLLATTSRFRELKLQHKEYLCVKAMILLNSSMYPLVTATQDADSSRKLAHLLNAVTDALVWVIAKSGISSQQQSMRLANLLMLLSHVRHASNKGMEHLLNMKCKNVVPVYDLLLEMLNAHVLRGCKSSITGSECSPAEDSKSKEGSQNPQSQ

MCF7 = assay: Cytotoxicity against human MCF7 cells assessed as cell growth inhibition by MTT assay; format: functional, cell-based
Estrogen receptor = molecular target: T1, Estrogen receptor (Homo sapiens, UniProt P03372); assay: Inhibition of human recombinant ERalpha expressed in baculovirus expression system measured after 20 mins by fluorescent polarisation Assay
T1 sequence (P03372 whole entry): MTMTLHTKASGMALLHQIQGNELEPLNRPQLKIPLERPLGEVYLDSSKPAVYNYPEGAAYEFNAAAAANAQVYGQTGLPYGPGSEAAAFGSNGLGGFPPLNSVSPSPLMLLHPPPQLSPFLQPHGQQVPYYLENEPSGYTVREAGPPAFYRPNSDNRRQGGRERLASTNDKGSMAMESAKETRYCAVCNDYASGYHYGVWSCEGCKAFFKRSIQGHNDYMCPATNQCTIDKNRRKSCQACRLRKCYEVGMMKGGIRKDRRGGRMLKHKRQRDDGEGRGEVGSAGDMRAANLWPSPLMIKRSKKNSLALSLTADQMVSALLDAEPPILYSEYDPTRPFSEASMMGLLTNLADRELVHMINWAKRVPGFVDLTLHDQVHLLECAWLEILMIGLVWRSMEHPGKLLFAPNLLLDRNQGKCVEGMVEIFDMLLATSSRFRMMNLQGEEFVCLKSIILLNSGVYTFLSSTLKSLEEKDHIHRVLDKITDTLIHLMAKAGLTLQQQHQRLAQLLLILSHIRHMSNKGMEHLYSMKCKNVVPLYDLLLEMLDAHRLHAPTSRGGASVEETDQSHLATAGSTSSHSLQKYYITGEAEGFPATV

[7] = Phototoxicity against rat AY-27 cells assessed as cell growth inhibition incubated for 2 hrs followed by diode laser illumination in presence of HAL by MTT assay relative to control; format: functional; parameters: scale not given: the % may be the effect or the level left

Structure (SMILES) | IC50 (HepG2 [1]) [nM] | IC50 (A549 [2]) [nM] | IC50 (HeLa) [nM] | IC50 (A549 [5]) [nM] | IC50 (MDA-MB-231) [nM] | further results
COc1ccc(/C=C\c2cc(OC)c(OC)c(OC)c2)cc1OC(=O)C1=CC(C)(C)N(O)C(C)(C)C1 | 3580 | 150 | – | – | – | –
COc1ccc(/C=C\c2cc(OC)c(OC)c(OC)c2)cc1OC(=O)CCn1cc(F)c(=O)[nH]c1=O | – | – | 30 | < 0.3 | 80600 | IC50 (HepG2 [3]): 7330 nM; IC50 (MGC-803 [4]): < 0.3 nM
COc1ccc(/C=C\c2cc(OC)c(OC)c(OC)c2)cc1OC(=O)C1CC(C)(C)N(O)C1(C)C (stereo not drawn) | 1830 | 42 | – | – | – | –
CCc1c2c(nc3ccc(OC(=O)N4CCC(N5CCCCC5)CC4)cc13)-c1cc3c(c(=O)n1C2)COC(=O)[C@]3(O)CC [IRINOTECAN] | 34100 | 2000 | – | – | – | –
COc1ccc(/C=C\c2cc(OC)c(OC)c(OC)c2)cc1OC(=O)C1=CC(C)(C)N(O)C1(C)C | 3270 | 160 | – | – | – | –
COc1ccc(/C=C\c2cc(OC)c(OC)c(OC)c2)cc1OC(=O)C1CC(C)(C)N(O)C(C)(C)C1 | 11200 | 170 | – | – | – | –
CC[C@H](C)[C@H](NC(=O)[C@@H](N)CC(C)C)C(=O)N[C@@H](Cc1ccc(O)cc1)C(=O)N1CCC[C@H]1C(=O)N[C@@H](CCCNC(=N)N)C(=O)N[C@@H](CCCNC(=N)N)C(=O)NCCCCCC(NC(=O)[C@@H](CCCNC(=N)N)NC(=O)[C@@H](CCCNC(=N)N)NC(=O)[C@@H]1CCCN1C(=O)[C@H](Cc1ccc(O)cc1)NC(=O)[C@@H](NC(=O)[C@@H](N)CC(C)C)[C@@H](C)CC)C(=O)NC(CCCCNC(=O)C(CCCCNC(=O)[C@H](CCCNC(=N)N)NC(=O)[C@H](CCCNC(=N)N)NC(=O)[C@@H]1CCCN1C(=O)[C@H](Cc1ccc(O)cc1)NC(=O)[C@@H](NC(=O)[C@@H](N)CC(C)C)[C@@H](C)CC)NC(=O)[C@H](CCCNC(=N)N)NC(=O)[C@H](CCCNC(=N)N)NC(=O)[C@@H]1CCCN1C(=O)[C@H](Cc1ccc(O)cc1)NC(=O)[C@@H](NC(=O)[C@@H](N)CC(C)C)[C@@H](C)CC)C(=O)NCCC(=O)NC(CCCCNC(=O)CCOCCOCCNC(=O)CCCCC(=O)Oc1cc(/C=C\c2cc(OC)c(OC)c(OC)c2)ccc1OC)C(N)=O (stereo partly drawn) | – | – | – | – | – | IC50 (PANC-1): 500 nM; IC50 (PC-3): 850 nM
COc1ccc(/C=C\c2cc(OC)c(OC)c(OC)c2)cc1OC(=O)Cn1cc(F)c(=O)[nH]c1=O | – | – | 31 | < 0.3 | 400 | IC50 (HepG2 [3]): 22.8 nM; inhibition in vivo at 50 mg/kg (MGC-803 [6]): 75%; IC50 (MGC-803 [4]): < 0.3 nM
COc1ccc(/C=C\c2cc(OC)c(OC)c(OC)c2)cc1O [COMBRETASTATIN A4] | 2390 | 35 | 400 | 2.54 | 3.3 | IC50 (HepG2 [3]): 12.8 nM; IC50 (MDA-MB-468): 16 nM; IC50 (MGC-803 [4]): 20.6 nM
COc1ccc(/C=C\c2cc(OC)c(OC)c(OC)c2)cc1OC(=O)N(C)CCOc1ccc(C(=C2CCC(C)CC2)c2ccc(O)cc2)cc1 (stereo not drawn) | – | – | – | – | – | IC50 (Estrogen receptor beta): 115 nM; IC50 (MCF7): 5.7 nM; IC50 (Estrogen receptor): 15 nM
CCN(CC)c1ccc2c(-c3ccccc3C(=O)OCC3CCN(/C=C/C(=O)Oc4cc(/C=C\c5cc(OC)c(OC)c(OC)c5)ccc4OC)CC3)c3ccc(=[N+](CC)CC)cc-3oc2c1.[Cl-] | – | – | – | – | – | Activity [7]: 100%
O=c1[nH]cc(F)c(=O)[nH]1 [FLUOROURACIL] | – | – | 113 | 34900 | 97000 | –
